In ChEMBL document CHEMBL1201862, “PubChem BioAssay data set” (2004):
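Each compound was tested at five concentrations against cells in 96-well plates for 48 hours. GI50 is the concentration that inhibits growth by half.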 The source made the active and inactive calls. Rule as the data show it: active = GI50 up to about 1.1 µM and inactive = higher.

Columns and labels:
Assay in all cases: NCI-60 cell line screen, 48 h
[1] = tested on: TK-10
[2] = tested on: NCI-H460
[3] = tested on: SK-MEL-5
[4] = tested on: SR
[5] = tested on: U-251
[6] = tested on: RXF 393
[7] = tested on: ACHN
[8] = tested on: HOP-62
[9] = tested on: DMS-273
[10] = tested on: HT-29
[11] = tested on: DMS-114
[12] = tested on: KM12
[13] = tested on: HCT-116
[14] = tested on: RPMI-8226
[15] = tested on: SW-620
[16] = tested on: CCRF-CEM
[17] = tested on: IGROV-1
[18] = tested on: M19-MEL

O=C(O)CCC(NC(=O)c1ccccc1)C(=O)O (stereo unspecified)
GI50 [1]: > 100 µM (inactive) | GI50 [2]: > 100 µM (inactive) | GI50 [3]: > 100 µM (inactive) | GI50 [4]: > 100 µM (inactive) | GI50 [5]: > 100 µM (inactive) | GI50 [6]: > 100 µM (inactive) | GI50 [7]: > 100 µM (inactive) | GI50 [8]: > 100 µM (inactive) | GI50 [9]: > 100 µM (inactive) | GI50 [10]: > 100 µM (inactive) | GI50 [11]: > 100 µM (inactive) | GI50 [12]: > 100 µM (inactive) | GI50 [13]: 58.7 µM (inactive) | GI50 [14]: > 100 µM (inactive) | GI50 [15]: 42.3 µM (inactive) | GI50 [16]: > 100 µM (inactive) | GI50 [17]: > 100 µM (inactive)

COc1ccc(C23c4ccc(OC)cc4CC2(c2ccc([N+](=O)[O-])cc2)Cc2cc(OC)ccc23)cc1 (stereo unspecified)
GI50 [1]: > 92.5 µM (inactive) | GI50 [2]: > 89.1 µM (inactive) | GI50 [3]: > 21.7 µM (inactive) | GI50 [5]: > 50.1 µM (inactive) | GI50 [7]: > 39.4 µM (inactive) | GI50 [8]: > 14.1 µM (inactive) | GI50 [9]: > 62.2 µM (inactive) | GI50 [10]: > 23.3 µM (inactive) | GI50 [11]: > 50 µM (inactive) | GI50 [12]: > 35.8 µM (inactive) | GI50 [18]: > 35.2 µM (inactive) | GI50 [13]: > 37.2 µM (inactive) | GI50 [14]: > 27.4 µM (inactive) | GI50 [15]: > 100 µM (inactive) | GI50 [16]: > 40.9 µM (inactive) | GI50 [17]: > 21.5 µM (inactive)

O=C1CCC2(c3ccccc3)Nc3ncccc3N12 (stereo unspecified)
GI50 [1]: > 100 µM (inactive) | GI50 [2]: > 100 µM (inactive) | GI50 [3]: > 100 µM (inactive) | GI50 [5]: > 100 µM (inactive) | GI50 [6]: > 100 µM (inactive) | GI50 [7]: > 100 µM (inactive) | GI50 [8]: > 100 µM (inactive) | GI50 [10]: > 100 µM (inactive) | GI50 [11]: > 100 µM (inactive) | GI50 [12]: > 100 µM (inactive) | GI50 [18]: > 100 µM (inactive) | GI50 [14]: > 100 µM (inactive) | GI50 [15]: > 100 µM (inactive) | GI50 [16]: > 100 µM (inactive) | GI50 [17]: > 100 µM (inactive)

Cn1c2cccc3nnc4cccc(c4c32)n1C
GI50 [2]: > 100 µM (inactive) | GI50 [3]: > 100 µM (inactive) | GI50 [5]: > 100 µM (inactive) | GI50 [6]: > 100 µM (inactive) | GI50 [7]: > 100 µM (inactive) | GI50 [9]: > 100 µM (inactive) | GI50 [10]: > 100 µM (inactive) | GI50 [11]: > 100 µM (inactive) | GI50 [12]: > 100 µM (inactive) | GI50 [18]: > 100 µM (inactive) | GI50 [13]: > 100 µM (inactive) | GI50 [14]: > 100 µM (inactive) | GI50 [15]: > 100 µM (inactive) | GI50 [16]: > 100 µM (inactive) | GI50 [17]: > 100 µM (inactive)

CC(=O)Oc1cc(OC(C)=O)c2cc3c(cc2c1OC(C)=O)C(=O)C1(CCCC1)C3=O
GI50 [1]: 17.2 µM (inactive) | GI50 [2]: 17.5 µM (inactive) | GI50 [5]: 18.1 µM (inactive) | GI50 [6]: 17.2 µM (inactive) | GI50 [7]: 17.7 µM (inactive) | GI50 [8]: 21.4 µM (inactive) | GI50 [9]: 18.2 µM (inactive) | GI50 [10]: 12.2 µM (inactive) | GI50 [11]: 16.5 µM (inactive) | GI50 [18]: 17.2 µM (inactive) | GI50 [14]: 2.29 µM (inactive) | GI50 [15]: 16.3 µM (inactive) | GI50 [17]: 17.2 µM (inactive)

COc1ccc(N2C(=O)C(N3C(=O)C=CC3=O)C2C=O)cc1 (stereo unspecified)
GI50 [1]: > 100 µM (inactive) | GI50 [2]: > 100 µM (inactive) | GI50 [3]: > 100 µM (inactive) | GI50 [4]: > 100 µM (inactive) | GI50 [5]: > 100 µM (inactive) | GI50 [7]: > 100 µM (inactive) | GI50 [8]: > 100 µM (inactive) | GI50 [9]: > 100 µM (inactive) | GI50 [10]: > 100 µM (inactive) | GI50 [12]: > 100 µM (inactive) | GI50 [18]: > 100 µM (inactive) | GI50 [13]: > 100 µM (inactive) | GI50 [14]: > 100 µM (inactive) | GI50 [15]: > 100 µM (inactive) | GI50 [16]: > 100 µM (inactive) | GI50 [17]: > 100 µM (inactive)

CN(C)CCC(/C=C/c1ccccc1)=N\Nc1ccccc1
GI50 [1]: 1.6 µM (inactive) | GI50 [2]: 1.41 µM (inactive) | GI50 [3]: 3.48 µM (inactive) | GI50 [5]: 1.83 µM (inactive) | GI50 [6]: 5.83 µM (inactive) | GI50 [7]: 0.37 µM (active) | GI50 [8]: 2.59 µM (inactive) | GI50 [9]: 0.571 µM (active) | GI50 [10]: 2.97 µM (inactive) | GI50 [11]: 2.07 µM (inactive) | GI50 [12]: 0.847 µM (active) | GI50 [18]: 1.57 µM (inactive) | GI50 [13]: 1.9 µM (inactive) | GI50 [14]: 0.853 µM (active) | GI50 [15]: 0.335 µM (active) | GI50 [16]: 0.526 µM (active) | GI50 [17]: 2.82 µM (inactive)

CCCC1C(=O)C(CC)Cc2c(OC)ccc(OC)c21 (stereo unspecified)
GI50 [1]: > 100 µM (inactive) | GI50 [2]: > 100 µM (inactive) | GI50 [3]: > 100 µM (inactive) | GI50 [5]: > 100 µM (inactive) | GI50 [6]: > 100 µM (inactive) | GI50 [7]: > 100 µM (inactive) | GI50 [8]: > 100 µM (inactive) | GI50 [9]: > 100 µM (inactive) | GI50 [10]: > 100 µM (inactive) | GI50 [12]: > 100 µM (inactive) | GI50 [18]: > 100 µM (inactive) | GI50 [14]: > 100 µM (inactive) | GI50 [15]: > 100 µM (inactive) | GI50 [16]: > 100 µM (inactive) | GI50 [17]: > 100 µM (inactive)

O=C1c2ccccc2C(=O)N1CCn1ccc(NC(c2ccccc2)(c2ccccc2)c2ccccc2)nc1=O
GI50 [1]: 26.9 µM (inactive) | GI50 [2]: 23.6 µM (inactive) | GI50 [3]: 17.5 µM (inactive) | GI50 [5]: 16.4 µM (inactive) | GI50 [6]: 18.8 µM (inactive) | GI50 [7]: 22.5 µM (inactive) | GI50 [8]: 17.5 µM (inactive) | GI50 [9]: 17.3 µM (inactive) | GI50 [10]: 16.8 µM (inactive) | GI50 [11]: 18.4 µM (inactive) | GI50 [12]: 20.8 µM (inactive) | GI50 [18]: 16.8 µM (inactive) | GI50 [13]: 17.5 µM (inactive) | GI50 [14]: 19.8 µM (inactive) | GI50 [15]: 29.3 µM (inactive) | GI50 [16]: 20.1 µM (inactive) | GI50 [17]: 22.2 µM (inactive)
